{
  "source": "ChEMBL document CHEMBL4507326",
  "about": "“Data for DCP probe TP-030-2” (2021)",
  "key": {"[1]": {"target": "Mitogen-activated protein kinase kinase kinase kinase 1 (Homo sapiens, UniProt Q92918)", "assay": "HPK1(M4K1LGY1) Takeda global kinase panel"}, "Ephrin type-A receptor 3": {"target": "Ephrin type-A receptor 3 (Homo sapiens, UniProt P29320)", "assay": "EphA3(EPA3LGD5) Takeda global kinase panel"}, "[2]": {"target": "Serine/threonine-protein kinase PLK3 (Homo sapiens, UniProt Q9H4B4)", "assay": "PLK3(PLK3PHY1) Takeda global kinase panel"}, "[3]": {"target": "Cyclin-dependent kinase 13 (Homo sapiens, UniProt Q14004)", "assay": "CHED(CD13PHS1) Takeda global kinase panel"}, "[4]": {"target": "Kappa-type opioid receptor (Homo sapiens) (UniProt P41145)", "settings": "Compound concentration 10.0 uM; call rule not given here"}, "[5]": {"target": "Muscarinic acetylcholine receptor M2 (Homo sapiens) (UniProt P08172)", "settings": "Compound concentration 10.0 uM"}, "[6]": {"target": "Eukaryotic translation initiation factor 2-alpha kinase 1 (Homo sapiens, UniProt Q9BQI3)", "assay": "HRI(EIK1CGQ1) Takeda global kinase panel"}, "[7]": {"target": "Alpha-1D adrenergic receptor (Homo sapiens) (UniProt P25100)", "settings": "Compound concentration 10.0 uM"}, "[8]": {"target": "Mitogen-activated protein kinase 15 (Homo sapiens, UniProt Q8TD08)", "sequence (Q8TD08 whole entry)": "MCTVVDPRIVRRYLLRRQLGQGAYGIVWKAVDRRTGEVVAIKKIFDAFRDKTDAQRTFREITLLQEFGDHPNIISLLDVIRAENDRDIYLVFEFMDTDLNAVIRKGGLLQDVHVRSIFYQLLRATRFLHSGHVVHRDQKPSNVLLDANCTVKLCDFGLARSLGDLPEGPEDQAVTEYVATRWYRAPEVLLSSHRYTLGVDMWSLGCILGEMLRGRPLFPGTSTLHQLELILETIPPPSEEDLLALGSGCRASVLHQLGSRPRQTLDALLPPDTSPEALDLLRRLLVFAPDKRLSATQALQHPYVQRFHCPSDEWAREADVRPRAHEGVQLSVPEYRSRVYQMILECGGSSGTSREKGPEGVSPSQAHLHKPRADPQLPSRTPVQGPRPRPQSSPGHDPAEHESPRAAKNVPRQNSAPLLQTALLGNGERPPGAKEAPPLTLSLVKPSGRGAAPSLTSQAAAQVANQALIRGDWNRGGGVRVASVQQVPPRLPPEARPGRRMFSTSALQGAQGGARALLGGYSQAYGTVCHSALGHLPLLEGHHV", "assay": "ERK7(MP15LGY1) Takeda global kinase panel"}, "[9]": {"target": "Serine/threonine-protein kinase OSR1 (Homo sapiens, UniProt O95747)", "assay": "OSR1(OXS1LGY1) Takeda global kinase panel"}, "[10]": {"target": "D(1A) dopamine receptor (Homo sapiens) (UniProt P21728)", "sequence (P21728 whole entry)": "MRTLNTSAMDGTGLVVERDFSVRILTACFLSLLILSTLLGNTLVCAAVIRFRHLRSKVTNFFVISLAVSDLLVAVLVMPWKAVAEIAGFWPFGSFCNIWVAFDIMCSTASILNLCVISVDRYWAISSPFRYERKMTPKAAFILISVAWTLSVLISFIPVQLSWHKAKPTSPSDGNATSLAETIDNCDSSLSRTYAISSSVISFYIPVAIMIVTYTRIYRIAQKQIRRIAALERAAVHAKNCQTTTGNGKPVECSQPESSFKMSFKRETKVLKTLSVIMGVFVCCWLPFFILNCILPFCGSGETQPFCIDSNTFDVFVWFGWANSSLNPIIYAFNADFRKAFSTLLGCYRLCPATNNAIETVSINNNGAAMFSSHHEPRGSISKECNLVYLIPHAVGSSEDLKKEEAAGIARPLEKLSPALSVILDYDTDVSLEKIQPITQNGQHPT", "settings": "Compound concentration 10.0 uM"}, "[11]": {"target": "Dual specificity protein kinase CLK4 (Homo sapiens, UniProt Q9HAZ1)", "assay": "CLK4(CLK4IGF1) Takeda global kinase panel"}, "[12]": {"target": "Tyrosine-protein kinase ABL2 (Homo sapiens, UniProt P42684)", "assay": "Arg(ABL2LGF1) Takeda global kinase panel"}, "[13]": {"target": "Serine/threonine-protein kinase ULK2 (Homo sapiens, UniProt Q8IYT8)", "assay": "ULK2(ULK2LGY1) Takeda global kinase panel"}, "[14]": {"target": "Phosphatidylinositol 4,5-bisphosphate 3-kinase catalytic subunit alpha isoform (Homo sapiens, UniProt P42336)", "assay": "PI3KCA(PI3ACGR1) Takeda global kinase panel"}, "[15]": {"target": "Fibroblast growth factor receptor 4 (Homo sapiens, UniProt P22455)", "assay": "FGFR4(FGF4LGF1) Takeda global kinase panel"}, "[16]": {"target": "Serine/threonine-protein kinase MRCK alpha (Homo sapiens, UniProt Q5VT25)", "assay": "MRCKalpha(CD4ALGY1) Takeda global kinase panel"}, "[17]": {"target": "Mitogen-activated protein kinase kinase kinase 9 (Homo sapiens, UniProt P80192)", "assay": "MLK1(M3K9LGF1) Takeda global kinase panel"}, "[18]": {"target": "Bone morphogenetic protein receptor type-1A (Homo sapiens, UniProt P36894)", "assay": "BMPR1A(BM1APHRG) Takeda global kinase panel"}, "[19]": {"target": "Protein kinase C delta type (Homo sapiens, UniProt Q05655)", "assay": "PKCdelta(PRKDPFP1) Takeda global kinase panel"}, "[20]": {"target": "Cyclin-dependent kinase 6 (Homo sapiens, UniProt Q00534)", "sequence (Q00534 whole entry)": "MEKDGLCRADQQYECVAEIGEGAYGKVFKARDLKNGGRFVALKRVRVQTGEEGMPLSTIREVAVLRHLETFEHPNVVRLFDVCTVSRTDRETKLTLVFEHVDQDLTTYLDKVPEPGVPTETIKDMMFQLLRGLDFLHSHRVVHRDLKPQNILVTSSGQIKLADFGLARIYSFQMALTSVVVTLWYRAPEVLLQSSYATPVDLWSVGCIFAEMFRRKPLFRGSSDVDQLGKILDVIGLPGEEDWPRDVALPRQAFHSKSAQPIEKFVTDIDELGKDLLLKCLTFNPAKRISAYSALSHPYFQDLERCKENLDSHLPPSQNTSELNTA", "assay": "CDK6(CDK6CGS1) Takeda global kinase panel"}, "[21]": {"target": "Phosphatidylinositol 4,5-bisphosphate 3-kinase catalytic subunit beta isoform (Homo sapiens, UniProt P42338)", "assay": "PIK3CB(PI3BCGRK) Takeda global kinase panel"}, "[22]": {"target": "Leukocyte tyrosine kinase receptor (Homo sapiens, UniProt P29376)", "sequence (P29376 whole entry)": "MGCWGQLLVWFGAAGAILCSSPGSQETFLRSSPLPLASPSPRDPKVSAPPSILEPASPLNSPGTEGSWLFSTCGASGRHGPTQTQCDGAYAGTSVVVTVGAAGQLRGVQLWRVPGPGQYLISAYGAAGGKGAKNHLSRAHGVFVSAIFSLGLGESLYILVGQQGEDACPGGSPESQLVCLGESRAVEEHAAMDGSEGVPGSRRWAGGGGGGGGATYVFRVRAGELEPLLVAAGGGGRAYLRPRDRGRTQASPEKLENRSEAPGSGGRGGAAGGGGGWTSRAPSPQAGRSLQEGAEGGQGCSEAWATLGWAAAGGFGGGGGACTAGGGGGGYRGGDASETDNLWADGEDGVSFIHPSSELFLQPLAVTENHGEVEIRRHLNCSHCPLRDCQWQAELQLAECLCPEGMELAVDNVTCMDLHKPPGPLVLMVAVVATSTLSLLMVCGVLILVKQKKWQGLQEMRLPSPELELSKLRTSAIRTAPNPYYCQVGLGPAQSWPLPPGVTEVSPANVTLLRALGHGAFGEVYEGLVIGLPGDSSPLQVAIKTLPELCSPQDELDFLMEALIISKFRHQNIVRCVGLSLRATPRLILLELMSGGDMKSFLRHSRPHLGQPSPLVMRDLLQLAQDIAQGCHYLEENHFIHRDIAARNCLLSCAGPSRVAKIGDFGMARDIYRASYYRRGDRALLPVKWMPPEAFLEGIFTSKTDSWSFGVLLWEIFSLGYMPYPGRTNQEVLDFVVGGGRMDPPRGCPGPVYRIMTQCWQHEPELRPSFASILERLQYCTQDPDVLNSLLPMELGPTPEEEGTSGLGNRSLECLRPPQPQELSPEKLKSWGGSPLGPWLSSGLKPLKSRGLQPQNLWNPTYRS", "assay": "LTK(LTK1LGF1) Takeda global kinase panel"}, "[23]": {"target": "Death-associated protein kinase 2 (Homo sapiens, UniProt Q9UIK4)", "sequence (Q9UIK4 whole entry)": "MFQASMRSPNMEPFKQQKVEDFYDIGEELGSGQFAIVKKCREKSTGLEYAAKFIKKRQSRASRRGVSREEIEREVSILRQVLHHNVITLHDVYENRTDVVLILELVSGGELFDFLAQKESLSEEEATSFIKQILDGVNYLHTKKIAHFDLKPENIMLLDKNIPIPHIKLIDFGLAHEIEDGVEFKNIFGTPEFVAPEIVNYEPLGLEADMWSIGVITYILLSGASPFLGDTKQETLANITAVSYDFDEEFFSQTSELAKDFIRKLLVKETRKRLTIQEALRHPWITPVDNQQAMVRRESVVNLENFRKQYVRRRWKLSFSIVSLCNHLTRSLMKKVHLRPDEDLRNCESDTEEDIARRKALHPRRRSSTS", "assay": "DAPK2(DAP2LGF1) Takeda global kinase panel"}, "[24]": {"target": "Bone morphogenetic protein receptor type-2 (Homo sapiens, UniProt Q13873)", "assay": "BMPR2(BMR2LGN1) Takeda global kinase panel"}, "[25]": {"target": "Serine/threonine-protein kinase PAK 6 (Homo sapiens, UniProt Q9NQU5)", "assay": "PAK6(PAK6CGY1) Takeda global kinase panel"}, "[26]": {"target": "Serine/threonine-protein kinase MARK1 (Homo sapiens, UniProt Q9P0L2)", "sequence (Q9P0L2 whole entry)": "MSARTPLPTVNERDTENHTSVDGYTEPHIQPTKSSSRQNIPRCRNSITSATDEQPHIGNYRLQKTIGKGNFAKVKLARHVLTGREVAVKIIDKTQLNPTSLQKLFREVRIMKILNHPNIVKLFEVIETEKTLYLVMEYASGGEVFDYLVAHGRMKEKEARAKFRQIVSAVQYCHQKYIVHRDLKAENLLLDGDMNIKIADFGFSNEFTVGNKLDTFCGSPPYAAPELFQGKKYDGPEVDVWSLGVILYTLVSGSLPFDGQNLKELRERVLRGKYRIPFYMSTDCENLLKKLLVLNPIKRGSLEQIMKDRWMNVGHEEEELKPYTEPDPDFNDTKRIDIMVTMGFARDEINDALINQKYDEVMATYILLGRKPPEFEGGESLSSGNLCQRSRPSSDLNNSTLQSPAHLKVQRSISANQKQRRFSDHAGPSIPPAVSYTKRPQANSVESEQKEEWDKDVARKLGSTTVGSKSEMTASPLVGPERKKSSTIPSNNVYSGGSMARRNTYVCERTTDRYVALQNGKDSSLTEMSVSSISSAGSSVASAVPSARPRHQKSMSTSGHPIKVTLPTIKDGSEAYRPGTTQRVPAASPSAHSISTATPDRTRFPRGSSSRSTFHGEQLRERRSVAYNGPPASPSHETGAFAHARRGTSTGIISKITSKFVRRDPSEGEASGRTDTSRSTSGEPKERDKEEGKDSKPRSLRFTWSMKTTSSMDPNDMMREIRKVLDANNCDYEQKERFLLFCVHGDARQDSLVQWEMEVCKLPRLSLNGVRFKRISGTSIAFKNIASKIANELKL", "assay": "MARK1(MAR1PHY1) Takeda global kinase panel"}, "[27]": {"target": "Ankyrin repeat and protein kinase domain-containing protein 1 (Homo sapiens, UniProt Q8NFD2)", "sequence (Q8NFD2 whole entry, the tested form may be a part)": "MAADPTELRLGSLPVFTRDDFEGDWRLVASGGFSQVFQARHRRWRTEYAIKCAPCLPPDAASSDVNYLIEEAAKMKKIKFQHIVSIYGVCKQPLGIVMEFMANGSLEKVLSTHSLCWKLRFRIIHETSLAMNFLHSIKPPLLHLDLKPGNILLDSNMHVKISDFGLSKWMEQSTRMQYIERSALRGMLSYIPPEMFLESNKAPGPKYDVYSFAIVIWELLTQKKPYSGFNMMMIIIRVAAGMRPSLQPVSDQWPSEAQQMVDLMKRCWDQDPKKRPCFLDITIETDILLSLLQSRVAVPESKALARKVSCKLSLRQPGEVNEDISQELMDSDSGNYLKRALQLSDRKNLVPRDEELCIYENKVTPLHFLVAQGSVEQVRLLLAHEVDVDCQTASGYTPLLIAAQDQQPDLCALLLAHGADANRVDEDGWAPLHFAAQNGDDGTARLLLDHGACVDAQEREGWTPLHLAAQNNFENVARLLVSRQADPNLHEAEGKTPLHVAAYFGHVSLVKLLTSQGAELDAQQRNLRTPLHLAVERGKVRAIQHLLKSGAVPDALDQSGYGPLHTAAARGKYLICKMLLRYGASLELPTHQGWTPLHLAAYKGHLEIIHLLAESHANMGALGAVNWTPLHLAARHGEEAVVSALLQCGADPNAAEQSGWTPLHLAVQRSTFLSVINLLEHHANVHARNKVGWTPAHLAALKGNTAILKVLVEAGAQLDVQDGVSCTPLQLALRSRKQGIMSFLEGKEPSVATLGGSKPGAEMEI", "assay": "SgK288(ANK1LGRL) Takeda global kinase panel"}, "[28]": {"target": "Serine/threonine-protein kinase 32B (Homo sapiens, UniProt Q9NY57)", "assay": "YANK2(S32BLGY2) Takeda global kinase panel"}, "[29]": {"target": "Mitogen-activated protein kinase 10 (Homo sapiens, UniProt P53779)", "assay": "JNK3(MP10LGF2) Takeda global kinase panel"}, "[30]": {"target": "Bromodomain testis-specific protein (Homo sapiens, UniProt Q58F21)", "assay": "BRDT(BRDTLGRC) Takeda global kinase panel"}, "[31]": {"target": "Serine/threonine-protein kinase 3 (Homo sapiens, UniProt Q13188)", "assay": "MST2(STK3LGF1) Takeda global kinase panel"}, "[32]": {"target": "Voltage-dependent N-type calcium channel subunit alpha-1B (Homo sapiens) (UniProt Q00975)", "assay": "Inhibition of Calcium Channel N-Type at 10 µM in the Eurofins-Panlabs radioligand binding assay (Eurofins_assay_216000)", "settings": "Rattus norvegicus; Compound concentration 10.0 uM"}, "[33]": {"target": "Beta-2 adrenergic receptor (Homo sapiens) (UniProt P07550)", "settings": "Compound concentration 10.0 uM"}, "[34]": {"target": "L-type calcium channel, dihydropyridine site (Cav1.2 alpha-1C) (Homo sapiens, UniProt Q13936)", "assay": "Inhibition of Calcium Channel L-Type, Dihydropyridine at 10 µM in the Eurofins-Panlabs radioligand binding assay (Eurofins_assay_214600)", "design": "ligand concentration 0.1 nM, non-specific ligand with concentration 1 µM Nitrendipine, incubation time 90 min, incubation temperature 25 °C", "settings": "Wistar, rat, rat cerebral cortex preparation, probe [3H] Nitrendipine; compound concentration 10 uM; target entry is the homologue from another species"}, "[35]": {"target": "Receptor-interacting serine/threonine-protein kinase 1 (Homo sapiens, UniProt Q13546)", "assay": "RIPK1(RIP1PGN1) Takeda global kinase panel"}, "[36]": {"target": "Serine/threonine-protein kinase Sgk3 (Homo sapiens, UniProt Q96BR1)", "assay": "SGK3(SGK3LGY1) Takeda global kinase panel"}, "[37]": {"target": "BMP-2-inducible protein kinase (Homo sapiens, UniProt Q9NSY1)", "assay": "BIKE(BM2KLGY1) Takeda global kinase panel"}, "[38]": {"target": "Testis-specific serine/threonine-protein kinase 1 (Homo sapiens, UniProt Q9BXA7)", "assay": "TSSK1(TS1BLGP1) Takeda global kinase panel"}, "[39]": {"target": "Serine/threonine-protein kinase B-raf (Homo sapiens, UniProt P15056)", "sequence (P15056 whole entry)": "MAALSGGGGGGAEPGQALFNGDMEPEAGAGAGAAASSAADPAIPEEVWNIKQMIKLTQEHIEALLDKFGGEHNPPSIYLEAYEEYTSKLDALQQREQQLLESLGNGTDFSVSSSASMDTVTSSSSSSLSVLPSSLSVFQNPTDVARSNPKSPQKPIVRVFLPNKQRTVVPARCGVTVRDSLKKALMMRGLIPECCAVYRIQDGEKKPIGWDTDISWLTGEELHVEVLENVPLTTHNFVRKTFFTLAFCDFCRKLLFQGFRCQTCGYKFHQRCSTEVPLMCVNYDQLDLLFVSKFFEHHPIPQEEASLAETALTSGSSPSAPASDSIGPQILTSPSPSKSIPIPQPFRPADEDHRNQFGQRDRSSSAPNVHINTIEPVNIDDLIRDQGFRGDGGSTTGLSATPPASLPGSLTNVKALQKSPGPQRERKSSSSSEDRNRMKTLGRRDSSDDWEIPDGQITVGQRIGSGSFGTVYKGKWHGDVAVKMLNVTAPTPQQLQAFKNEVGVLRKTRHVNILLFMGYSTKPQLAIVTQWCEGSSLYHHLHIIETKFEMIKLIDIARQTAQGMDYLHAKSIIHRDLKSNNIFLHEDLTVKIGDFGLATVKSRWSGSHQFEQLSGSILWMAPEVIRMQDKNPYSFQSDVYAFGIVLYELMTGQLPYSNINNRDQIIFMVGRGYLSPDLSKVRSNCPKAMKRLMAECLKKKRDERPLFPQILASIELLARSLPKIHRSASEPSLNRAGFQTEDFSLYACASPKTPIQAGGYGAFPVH", "assay": "BRAF(BRAFLGY1) Takeda global kinase panel"}, "[40]": {"target": "Sigma non-opioid intracellular receptor 1 (Homo sapiens) (UniProt Q99720)", "assay": "Sigma 1 Eurofins-Panlabs radioligand binding assay", "design": "ligand concentration 15 nM", "settings": "Compound concentration 10.0 uM"}, "[41]": {"target": "Tyrosine-protein kinase Mer (Homo sapiens, UniProt Q12866)", "assay": "Mer(MERTLGF1) Takeda global kinase panel"}, "[42]": {"target": "Macrophage colony-stimulating factor 1 receptor (Homo sapiens, UniProt P07333)", "assay": "FmS [CSFR(CSF1LGC1)] Takeda global kinase panel"}, "[43]": {"assay": "GPCRScan assay: inhibition of GABA/PBR", "design": "species or system Rattus norvegicus; radioligand conc. used [nm] 0.3 – 2.0, parental cells brain tissue"}},
  "data": [
    {"smiles": "CN1C(=O)[C@@H](N2CCc3c(nn(Cc4ccccc4)c3Br)C2=O)COc2ccccc21", "note": "[TP-030-2]", "values": [
      {"measurement": "IC50", "setting": "[1]", "value": 1000, "unit": "nM"},
      {"measurement": "IC50", "setting": "Ephrin type-A receptor 3", "value": 1000, "unit": "nM"},
      {"measurement": "IC50", "setting": "[2]", "value": 1000, "unit": "nM"},
      {"measurement": "IC50", "setting": "[3]", "value": 1000, "unit": "nM"},
      {"measurement": "inhibition", "setting": "[4]", "value": 3, "unit": "%"},
      {"measurement": "inhibition", "setting": "[5]", "value": -4.12, "unit": "%"},
      {"measurement": "IC50", "setting": "[6]", "value": 1000, "unit": "nM"},
      {"measurement": "inhibition", "setting": "[7]", "value": 5.52, "unit": "%"},
      {"measurement": "IC50", "setting": "[8]", "value": 1000, "unit": "nM"},
      {"measurement": "IC50", "setting": "[9]", "value": 1000, "unit": "nM"},
      {"measurement": "inhibition", "setting": "[10]", "value": 9, "unit": "%"},
      {"measurement": "IC50", "setting": "[11]", "value": 1000, "unit": "nM"},
      {"measurement": "IC50", "setting": "[12]", "value": 1000, "unit": "nM"},
      {"measurement": "IC50", "setting": "[13]", "value": 1000, "unit": "nM"},
      {"measurement": "IC50", "setting": "[14]", "value": 1000, "unit": "nM"},
      {"measurement": "IC50", "setting": "[15]", "value": 1000, "unit": "nM"},
      {"measurement": "IC50", "setting": "[16]", "value": 1000, "unit": "nM"},
      {"measurement": "IC50", "setting": "[17]", "value": 1000, "unit": "nM"},
      {"measurement": "IC50", "setting": "[18]", "value": 1000, "unit": "nM"},
      {"measurement": "IC50", "setting": "[19]", "value": 1000, "unit": "nM"},
      {"measurement": "IC50", "setting": "[20]", "value": 1000, "unit": "nM"},
      {"measurement": "IC50", "setting": "[21]", "value": 1000, "unit": "nM"},
      {"measurement": "IC50", "setting": "[22]", "value": 1000, "unit": "nM"},
      {"measurement": "IC50", "setting": "[23]", "value": 1000, "unit": "nM"},
      {"measurement": "IC50", "setting": "[24]", "value": 1000, "unit": "nM"},
      {"measurement": "IC50", "setting": "[25]", "value": 1000, "unit": "nM"},
      {"measurement": "IC50", "setting": "[26]", "value": 1000, "unit": "nM"},
      {"measurement": "IC50", "setting": "[27]", "value": 1000, "unit": "nM"},
      {"measurement": "IC50", "setting": "[28]", "value": 1000, "unit": "nM"},
      {"measurement": "IC50", "setting": "[29]", "value": 1000, "unit": "nM"},
      {"measurement": "IC50", "setting": "[30]", "value": 1000, "unit": "nM"},
      {"measurement": "IC50", "setting": "[31]", "value": 1000, "unit": "nM"},
      {"measurement": "inhibition", "setting": "[32]", "value": -1, "unit": "%"},
      {"measurement": "inhibition", "setting": "[33]", "value": -4, "unit": "%"},
      {"measurement": "inhibition at 90 min, 10 µM", "setting": "[34]", "value": "29% (not active)"},
      {"measurement": "IC50", "setting": "[35]", "value": 10, "unit": "nM"},
      {"measurement": "IC50", "setting": "[36]", "value": 1000, "unit": "nM"},
      {"measurement": "IC50", "setting": "[37]", "value": 1000, "unit": "nM"},
      {"measurement": "IC50", "setting": "[38]", "value": 1000, "unit": "nM"},
      {"measurement": "IC50", "setting": "[39]", "value": 1000, "unit": "nM"},
      {"measurement": "inhibition", "setting": "[40]", "value": 13, "unit": "%"},
      {"measurement": "IC50", "setting": "[41]", "value": 1000, "unit": "nM"},
      {"measurement": "IC50", "setting": "[42]", "value": 1000, "unit": "nM"},
      {"measurement": "Ki", "setting": "[43]", "value": 347, "unit": "nM"},
      {"measurement": "pKi", "setting": "[43]", "value": 6.465}
    ]}
  ]
}
